The values that follow come from ChEMBL document CHEMBL4052656, “The synthesis and evaluation of triazolopyrimidines as anti-tubercular agents” (Bioorg Med Chem, 2017).

Calls of active or inactive are those of the source. No cut-off for these calls is given here.

The test system of data set [1] is Mycobacterium tuberculosis. Description: Bactericidal activity against replicating Mycobacterium tuberculosis H37Rv after 21 days by agar dilution method. It is filed as functional. Background: Agar dilution tests growth on a series of plates holding different concentrations.
Data set [2] concerns Mycobacterium tuberculosis. Description: Bacteriostatic activity against replicating Mycobacterium tuberculosis H37Rv by agar dilution method. It is filed as functional.
Data set [3] in a line: Selectivity index, ratio of IC50 for human HepG2 cells to MIC90 for Mycobacterium tuberculosis H37Rv. The note with it: read-out: Selectivity Index. The data set is classed as toxicity.

Turning to `COc1ccc(CC(=O)Nc2cc(-c3ccccc3)nc3ncnn23)cc1`, the result in data set [1] was inactive. For the same compound, the outcome in data set [2] was Active.
Consider `COc1ccc(CCNc2cc(-c3ccccn3)nc3ncnn23)cc1`, for which the result in data set [1] was inactive. Moreover, the outcome in data set [2] was Active.
Regarding `FC(F)(F)Oc1ccc(CCNc2cc(-c3ccccc3)nc3ncnn23)cc1`, in data set [1], the result was inactive. Also, the outcome in data set [2] was Active.
Regarding `COc1ccc(CCNc2cc(-c3ccc(F)cc3)nc3ncnn23)cc1`, the selectivity ratio in data set [3] is greater than 21.
